Results taken from US10155802B2, “Locally-active anticoagulants and anti-inflammatory agents” (priority 2011, dated 2018).
pKi: −log10 of the molar value. Values joined by “and” are separate entries in the source; they are usually repeats but may differ in a detail not shown here. Identical values can stand only once. “Also recorded” adds a separate entry of the source.

What was measured:
Human α-thrombin = target: T1, Human α-thrombin (Homo sapiens, UniProt P00734); test: Inhibition of thrombin-catalyzed hydrolysis of chromogenic substrate S-2366 (inhibition constant Ki); assay type: biochemical; settings: for pKi: Ki, T = 37° C., enzyme kinetics, chromogenic substrate
T1 construct: Human α-thrombin was purchased from Haemotologic Technologies, Inc., VT, USA; purchased Haemotologic Technologies, Inc., VT, USA

thrombin = thrombin (Homo sapiens, UniProt P00734); test: Cleavage of thrombin-sensitive peptides catalyzed by thrombin, followed by HPLC; assay type: biochemical; set-up: rapidly converts prothrombin into the ultimate protease thrombin; settings: 75 μM peptide, 23 nM thrombin, pH 7.6, 37° C.
[1] = tested on: FeCl3-induced arterial thrombosis (carotid artery); test: FeCl3-induced arterial model of thrombosis in rats (time to occlusion); assay type: in vivo; settings: rat, single bolus 0.2 mg/kg plus maintenance infusion 0.00433 mg/kg/min
Experimental: Male Sprague-Dawley rats (250-310 g; Charles River Laboratories, St-Constant, QC, Canada) were acclimated for at least 3 days prior to the start of the study. Animals were housed in microisolator cages and were kept on a 12-hr light/dark cycle with constant temperature and humidity. Food and water were provided ad libitum. Various anti-thrombotic agents and peptides of this invention were dissolved in saline (0.9% sodium chloride) prior to use.
The FeCl3-induced arterial model of thrombosis in rats was also generated as described by Wang and Xu (Wang 2005) with some modifications (Couture 2011). Briefly, rats were anesthetized with a 2.5% isoflurane/oxygen mixture and placed on a heat source (35-37° C.). An incision was made over the right carotid artery, and a segment of the artery was exposed via blunt dissection. A Doppler flow probe (Model MA1PRB, Transonic System Inc., Ithaca, N.Y., USA) connected to a perivascular flow module (TS420, Transonic System Inc., Ithaca, N.Y., USA) was then attached to the carotid artery to monitor blood flow. Data were collected and analyzed using the MP100 Biopac™ Systems (Biopac Systems, Santa Barbara, Calif., USA), and the AcgKnowledge™ software (Biopac Systems, Santa Barbara, Calif., USA), respectively. Baseline blood flow was recorded for a minimum of 15 minutes until readings stabilized. Aquasonic 100 gel (Parker Laboratories, Inc., Fairfield, N.J., USA) was added to help conductivity and any fluid accumulating at the site of surgery was removed during data sampling without touching the probe. […] One minute after drug administration, a piece of filter paper (Gel Blot Paper, GB003, Whatman, Piscataway, N.J., USA; 7 mm diameter) saturated with 20% FeCl3 (EMD Chemicals Inc., Gibbstown, N.J., USA) was placed on the exposed surface of the carotid artery and incubated for 3.5 minutes. During the application of FeCl3, the neck region was covered with aluminum foil. At the end of the incubation period, the filter paper was removed and the exposed carotid was covered with a saline-soaked gauze. Time to occlusion was defined as the time from the application of FeCl3 until blood flow decreased to zero. […] Preparing and processing each animal took approximately 1 hr and 7 animals were treated each day. Control animals were always included when the other treatments were being administered. For this reason, the number of animals in the control group is higher than that of the treated-groups.
Statistical analysis was conducted using GraphPad™ Prism (GraphPad Software Inc., San Diego Calif., USA). Data were analyzed using one-way ANOVA with post-hoc Bonferroni correction for multiple comparisons. The relationship between thrombus weight and thrombus volume was determined by linear regression. […]

[2] = tested on: fresh blood withdrawn from rats with venous thrombosis; test: Clotting time (aPTT) of fresh blood withdrawn from treated rats; assay type: in vivo; settings: rat, 0.2 mg/kg bolus + 0.00433 mg/kg/min infusion; 20 minutes after administration versus before
Experimental: FIG. 23 illustrates the clotting times (aPTT) determined for fresh blood withdrawn from rats with venous thrombosis at three time points, the first before drug administration and vessel injury, the second at 20 minutes after FeCl3 application and the third 60 minutes following injection of the respective thrombin inhibitors. Clotting times (aPTT) are shown for different rats administered with each thrombin inhibitor, ZIP4 for MH2-wZIP4, ZIP5 for MH2-wZIP5 and T218 for BRI-T218. Dosage levels for every compound were 0.2 mg/kg for the single-bolus injection and 0.00433 mg/kg/min for the maintenance infusion,
Terminal blood samples were analyzed for aPTT within 15 to 30 minutes of collection using a Coag DX Analyzer with aPTT citrate cartridges (IDEXX Laboratories, Westbrook, Me., USA).

Row | Compound | reduction of Ki as compared to BRI-T207 (Human α-thrombin) | reduction of Ki as compared to MH2-wZIP4 (Human α-thrombin) | pKi (Human α-thrombin) | cleavage by thrombin (thrombin) | anti-thrombotic efficacy in arterial model [1] | clotting time (aPTT), systemic anticoagulant effect [2]
1 | CC[C@H](C)[C@H](NC(=O)[C@H](CCC(=O)O)NC(=O)[C@H](CCC(=O)O)NC(=O)[C@H](Cc1ccccc1)NC(=O)[C@H](CC(=O)O)NC(=O)CNC(=O)[C@H](CCC(=O)O)NC(=O)[C@@H](NC(=O)[C@H](Cc1c[nH]c2ccccc12)NC(=O)[C@@H](NC(=O)[C@H](Cc1c[nH]c2ccccc12)NC(=O)[C@@H](NC(=O)[C@H](CCCCN)NC(=O)[C@@H](NC(=O)[C@H](C)NC(=O)[C@H](CC(=O)O)NC(=O)[C@H](CC(=O)O)NC(=O)[C@H](Cc1c[nH]c2ccccc12)NC(=O)[C@@H](NC(=O)[C@H](Cc1c[nH]c2ccccc12)NC(=O)[C@H](CCC(=O)O)NC(=O)CNC(=O)[C@H](CC(=O)O)NC(=O)[C@@H](NC(=O)[C@H](Cc1ccccc1)NC(=O)[C@H](CCCNC(=N)N)NC(=O)[C@@H]1CCCN1C(=O)[C@H](CCCNC(=N)N)NC(=O)[C@@H]1CCCN1C(=O)[C@H](N)Cc1ccccc1)[C@@H](C)O)[C@@H](C)O)[C@@H](C)O)[C@@H](C)O)[C@@H](C)O)[C@@H](C)O)C(=O)N1CCC[C@H]1C(=O)N[C@@H](CCC(=O)O)C(=O)N[C@@H](CCC(=O)O)C(=O)N[C@@H](Cc1ccc(O)cc1)C(=O)N[C@@H](CC(C)C)C(=O)O [BRI-T208] | about 13 fold | approximately 5 fold | ~7.55 and 7.55 | significantly more resistant to thrombin cleavage than BRI-T218 |  | 
2 | CC[C@H](C)[C@H](NC(=O)[C@H](CCCNC(=N)N)NC(=O)[C@@H]1CCCN1C(=O)[C@H](N)Cc1ccccc1)C(=O)N[C@@H](CCCNC(=N)N)C(=O)N[C@@H](Cc1ccccc1)C(=O)N[C@H](C(=O)N[C@@H](CC(=O)O)C(=O)NCC(=O)N[C@@H](CCC(=O)O)C(=O)N[C@@H](Cc1c[nH]c2ccccc12)C(=O)N[C@H](C(=O)N[C@@H](Cc1c[nH]c2ccccc12)C(=O)N[C@@H](CC(=O)O)C(=O)N[C@@H](CC(=O)O)C(=O)N[C@@H](C)C(=O)N[C@H](C(=O)N[C@@H](CCCCN)C(=O)N[C@H](C(=O)N[C@@H](Cc1c[nH]c2ccccc12)C(=O)N[C@H](C(=O)N[C@@H](Cc1c[nH]c2ccccc12)C(=O)N[C@H](C(=O)N[C@@H](CCC(=O)O)C(=O)NCC(=O)N[C@@H](CC(=O)O)C(=O)N[C@@H](Cc1ccccc1)C(=O)N[C@@H](CCC(=O)O)C(=O)N[C@@H](CCC(=O)O)C(=O)N[C@H](C(=O)N1CCC[C@H]1C(=O)N[C@@H](CCC(=O)O)C(=O)N[C@@H](CCC(=O)O)C(=O)N[C@@H](Cc1ccc(O)cc1)C(=O)N[C@@H](CC(C)C)C(=O)O)[C@@H](C)CC)[C@@H](C)O)[C@@H](C)O)[C@@H](C)O)[C@@H](C)O)[C@@H](C)O)[C@@H](C)O [BRI-T218] |  |  | ~7.85 and 7.85 | completely converted to the cleavage products within two hours; also recorded: almost completion of the cleavage reaction after 2 hours of incubation | appears to restore the anti-thrombotic activity; also recorded: increases the efficacy | only a slight prolongation of the clotting time (aPTT)
